Laboratory results: ChEMBL document CHEMBL6134872, “Efficacy and Toxicity Analysis of Selective BET Bromodomain Inhibitors in Models of Inflammatory Liver Disease” (J Med Chem, 2025)
The source made the active and inactive calls. The rule behind the calls is not given here.

How the values were obtained:
[1] = target: Bromodomain-containing protein 2 (Homo sapiens, UniProt P25440); test: Inhibition of his9-tagged BRD2-BD2 (unknown origin) preincubated for 30 mins followed by addition of biotinylated peptide and measured after 30 mins by Alphascreen assay
Sequence of Bromodomain-containing protein 2 (P25440 whole entry): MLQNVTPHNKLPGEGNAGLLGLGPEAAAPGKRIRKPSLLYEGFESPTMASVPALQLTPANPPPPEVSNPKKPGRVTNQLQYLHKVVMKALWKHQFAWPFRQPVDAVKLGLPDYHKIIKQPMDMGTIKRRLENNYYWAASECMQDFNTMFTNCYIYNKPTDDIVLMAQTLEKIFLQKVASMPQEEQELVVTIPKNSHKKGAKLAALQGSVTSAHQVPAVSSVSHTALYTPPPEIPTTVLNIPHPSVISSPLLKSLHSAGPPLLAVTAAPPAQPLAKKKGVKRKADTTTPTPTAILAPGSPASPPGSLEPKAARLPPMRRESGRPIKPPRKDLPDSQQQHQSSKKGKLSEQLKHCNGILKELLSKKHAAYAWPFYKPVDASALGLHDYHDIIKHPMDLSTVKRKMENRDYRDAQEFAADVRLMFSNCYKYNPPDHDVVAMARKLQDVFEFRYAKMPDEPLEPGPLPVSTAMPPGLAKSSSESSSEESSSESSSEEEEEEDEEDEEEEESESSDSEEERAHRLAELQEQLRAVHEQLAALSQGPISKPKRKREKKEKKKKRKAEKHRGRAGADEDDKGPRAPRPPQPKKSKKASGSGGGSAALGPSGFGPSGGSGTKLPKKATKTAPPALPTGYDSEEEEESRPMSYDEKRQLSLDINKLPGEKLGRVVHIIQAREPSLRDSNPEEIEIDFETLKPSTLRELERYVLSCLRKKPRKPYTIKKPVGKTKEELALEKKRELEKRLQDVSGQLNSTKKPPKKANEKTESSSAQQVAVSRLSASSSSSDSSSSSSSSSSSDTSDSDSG

Mus musculus [2] = test: Antiinflammatory activity against LPS-induced C57BL/6J mouse model assessed as reduction in Cxcl1 expression at 30 mg/kg, po preincubated for 1 hr followed by LPS stimulation and measured after 8 hrs by qPCR analysis; type: functional, organism-based; settings: time 9.0 hrs
[3] = Cytotoxicity against mouse TSEC cells at up to 200 uM measured after 4 hrs by XTT assay; type: toxicity, cell-based
Mus musculus [4] = test: Antiinflammatory activity against LPS-induced C57BL/6J mouse model assessed as reduction in Cxcl2 expression at 30 mg/kg, po preincubated for 1 hr followed by LPS stimulation and measured after 8 hrs by qPCR analysis; type: functional, organism-based; settings: time 9.0 hrs
Mus musculus [5] = test: Antiinflammatory activity against APAP-induced C57BL/6J mouse liver injury model assessed as reduction in Ccl2 expression at 30 mg/kg, po preincubated for 1 hr followed by APAP stimulation and measured after 8 hrs by qPCR analysis; type: functional, organism-based; settings: time 9.0 hrs
[6] = target: T1, Bromodomain-containing protein 4 (Homo sapiens, UniProt O60885); test: Induction of stabilization of BRD4-BD1 in human HEK293T cells at 0.5 to 5 uM incubated for 2 hrs by CESTA analysis; type: cell-based; settings: dose 0.5-5 µM
Mus musculus [7] = test: Antiinflammatory activity against APAP-induced C57BL/6J mouse liver injury model assessed as reduction in Cxcl1 expression at 30 mg/kg, po preincubated for 1 hr followed by APAP stimulation and measured after 8 hrs by qPCR analysis; type: functional, organism-based; settings: time 9.0 hrs
[8] = Toxicity in mouse Megakaryocyte cells assessed as reduction in thrombocytopenia risk by CFU-MK Assay; type: cell-based
Mus musculus [9] = test: Antiinflammatory activity against APAP-induced C57BL/6J mouse liver injury model assessed as reduction in Ly6G expression at 30 mg/kg, po preincubated for 1 hr followed by APAP stimulation and measured after 8 hrs by qPCR analysis; type: functional, organism-based; settings: time 9.0 hrs
Mus musculus [10] = test: Antiinflammatory activity against APAP-induced C57BL/6J mouse liver injury model assessed as reduction in Cxcl2 expression at 30 mg/kg, po preincubated for 1 hr followed by APAP stimulation and measured after 8 hrs by qPCR analysis; type: functional, organism-based; settings: time 9.0 hrs
Mus musculus [11] = test: Antiinflammatory activity against LPS-induced C57BL/6J mouse model assessed as reduction in Ccl2 expression at 30 mg/kg, po preincubated for 1 hr followed by LPS stimulation and measured after 8 hrs by qPCR analysis; type: functional, organism-based; settings: time 9.0 hrs
Mus musculus [12] = test: Antiinflammatory activity against APAP-induced C57BL/6J mouse liver injury model assessed as reduction in necrosis at 30 mg/kg, po preincubated for 1 hr followed by APAP stimulation and measured after 12 hrs by H and E staining based analysis; type: functional, organism-based
Mus musculus [13] = test: Antiinflammatory activity against LPS-induced C57BL/6J mouse model assessed as reduction in goblet cell in small intestine at 30 mg/kg, po preincubated for 1 hr followed by LPS stimulation and measured after 8 days by alcian blue staining based analysis; type: functional, organism-based; settings: time 9.0 hrs
TSEC [14] = test: Antiinflammatory activity against LPS induced mouse TSEC cells assessed as inhibition of CXCL1 expression at 0.3 to 5 uM preincubated for 1 hr followed by LPS stimulation and measured after 4 hrs by qPCR analysis; type: functional, cell-based; settings: dose 0.3-5 µM, time 5.0 hrs
[15] = Half life in male C57BL6 mouse liver at 10 mg/kg, ip measured up to 24 hrs by LC-MS/MS analysis; type: ADME, organism-based; settings: for half-life: male, C57BL6, mouse, liver
TSEC [16] = test: Antiinflammatory activity against LPS induced mouse TSEC cells assessed as inhibition of CCL2 expression at 0.3 to 5 uM preincubated for 1 hr followed by LPS stimulation and measured after 4 hrs by qPCR analysis; type: functional, cell-based; settings: dose 0.3-5 µM, time 5.0 hrs
[17] = AUC in male C57BL6 mouse liver at 10 mg/kg, ip measured up to 24 hrs by LC-MS/MS analysis; type: ADME, organism-based; settings: in vivo
[18] = target: T1, Bromodomain-containing protein 4; test: Inhibition of his9-tagged BRD4-BD1 (unknown origin) preincubated for 30 mins followed by addition of biotinylated peptide and measured after 30 mins by Alphascreen assay
[19] = Apparent oral clearance in male C57BL6 mouse plasma at 10 mg/kg, ip measured up to 24 hrs by LC-MS/MS analysis; type: ADME, organism-based
[20] = target: T1, Bromodomain-containing protein 4; test: Inhibition of human his tagged BRD4-BD2 using Histone H4 peptide (1-21) K5/8/12/16Ac as substrate preincubated for 30 mins followed by addition of biotinylated peptide and measured after 30 mins by Alphascreen assay
[21] = Cmax in male C57BL6 mouse plasma at 10 mg/kg, ip measured up to 24 hrs by LC-MS/MS analysis; type: ADME, organism-based
[22] = AUC in male C57BL6 mouse plasma at 10 mg/kg, ip measured up to 24 hrs by LC-MS/MS analysis; type: ADME, organism-based; settings: for AUC at 24 h: male, C57BL6, mouse, plasma
[23] = target: T1, Bromodomain-containing protein 4; test: Inhibition of N-luc fused BRD4-BD1 in HEK293T cells using NanoGlo substrate as substrate at 10 uM incubated for 2 hrs by NanoBRET assay relative to control; type: cell-based
[24] = target: T1, Bromodomain-containing protein 4; test: Inhibition of N-luc fused BRD4-BD1 in HEK293T cells using NanoGlo substrate as substrate incubated for 2 hrs by NanoBRET assay; type: cell-based
[25] = Cmax in male C57BL6 mouse liver at 10 mg/kg, ip measured up to 24 hrs by LC-MS/MS analysis; type: ADME, organism-based; settings: in vivo
[26] = target: T1, Bromodomain-containing protein 4; test: Binding affinity to N-luc fused BRD4-BD1 in HEK293T cells assessed as apparent inhibition constant using NanoGlo substrate as substrate incubated for 2 hrs by NanoBRET assay; type: cell-based; settings: read-out: Ki(app)
[27] = Metabolic stability in mouse liver microsomes assessed as half life […] measured after 60 mins in presence of NADPH by LC-MS/MS analysis; type: ADME, Microsome
[28] = Cytotoxicity against mouse TSEC cells at 10 uM measured after 4 hrs by XTT assay; type: toxicity, cell-based
[29] = male, C57BL6, mouse, plasma, read-out: CL/F (converted)
[30] = mouse, in vivo, ip, 10 mg/kg, 24 h
[31] = mouse, megakaryocyte cells (CFU-MK colony formation)

IC50 [1] [nM]	Activity [6]	AUC [17] [nmol·h/g]	Cmax [21] [nM]	Cmax [25] [nmol/g]	Structure (SMILES)	Activity (Mus musculus [2])	Activity [3]	Activity (Mus musculus [4])	Activity (Mus musculus [5])	Activity (Mus musculus [7])	EC50 ([8]; megakaryocyte) [nM]	Activity (Mus musculus [9])	Activity (Mus musculus [10])	Activity (Mus musculus [11])	Activity (Mus musculus [12])	Activity (Mus musculus [13])	Activity (TSEC [14])	Activity (TSEC [16])	other results
–	Active	–	–	–	COc1cc2c(cc1-c1c(C)noc1C)ncc1[nH]c(=O)n([C@H](C)c3ccccn3)c12	Active	Non-toxic	Active	inactive	Active	1280	Active	Active	Active	inactive	Active	–	–	–
> 10000	inactive	138	1050	38.9	Cc1ccc(C(C)C)cc1Oc1nccc(-c2c(-c3ccc(C(F)(F)F)cc3)ncn2C2CCN(CCO)CC2)n1	Active; Compound Showed No Significant Reduction Compared To I-Bet151 And Compound 3(Dw34)	Non-toxic	Active; Compound Showed No Significant Reduction Compared To I-Bet151 And Compound 3(Dw34)	Active	Active	1830	inactive	inactive	Active; Compound Showed No Significant Reduction Compared To I-Bet151 And Compound 3(Dw34)	Active	–	Active	Active	half-life [15]: 3.4 h; IC50 [18]: 111 nM; CL/F [19, 29]: 65 mL/min/kg; IC50 [20]: > 10000 nM; AUC at 24 h [22]: 4.04 µM·h; inhibition [23]: 36%; EC50 [24]: 2450 nM; Ki [26]: 936 nM; half-life [27]: 1.29 h
–	–	1402	1800	137	Cc1ccc(C(C)C)cc1Oc1nccc(-c2c(-c3ccc(C(F)(F)F)cc3)ncn2C2CCNCC2)n1	Active	–	Active	Active	Active	670	Active	Active	Active	Active	Active	Active	Active	t1/2 [15, 30]: 6.8 h; CL/F [19, 30]: 418 mL/min/kg; AUC [22, 30]: 40.2 µM·h; Activity [28]: Toxic; half-life [27]: 3.45 h
–	–	–	–	–	CCS(=O)(=O)Nc1ccc(Oc2ccc(F)cc2F)c(-c2cn(C)c(=O)c3[nH]ccc23)c1 [MIVEBRESIB]	–	–	–	–	–	–	–	–	–	–	–	–	–	EC50 [8, 31]: 645 nM
–	–	–	–	–	CCNC(=O)c1cc2c(-c3cc(C(C)(C)O)ccc3Oc3c(C)cc(F)cc3C)cn(C)c(=O)c2[nH]1 [ABBV-744]	–	–	–	–	–	–	–	–	–	–	–	–	–	EC50 [8, 31]: 3 nM
49	–	–	–	–	CC(=O)Nc1c(F)cc(C(=O)N[C@H]2CC[C@H](O)CC2)cc1O[C@@H](C)c1ccccc1 [GSK046]	–	Non-toxic	–	inactive	–	380	–	inactive	–	Active	–	–	Active; Compound Is Less Effective Than I-Bet151 And Compound 3	–

Structure (SMILES)	IC50 [1] [nM]	Activity [6]	AUC [17] [nmol·h/g]	Cmax [21] [nM]	Cmax [25] [nmol/g]	Activity (Mus musculus [2])	Activity [3]	Activity (Mus musculus [4])	Activity (Mus musculus [5])	Activity (Mus musculus [7])	EC50 ([8]; megakaryocyte) [nM]	Activity (Mus musculus [9])	Activity (Mus musculus [10])	Activity (Mus musculus [11])	Activity (Mus musculus [12])	Activity (Mus musculus [13])	Activity (TSEC [14])	Activity (TSEC [16])	other results
O=C(Nc1ccc(C(F)(F)F)cc1)Nc1ccc(S(=O)(=O)N2CCC[C@H]2CN2CCOCC2)cc1	> 50000	–	–	–	–	–	–	–	–	–	–	–	–	–	–	–	–	–	–
Cc1cc(C)cc(Oc2cccc(-c3c(C)nnn3C3CCN(CCN(C)C)CC3)n2)c1	–	inactive	2.65	430	3.69	Active; Compound Showed No Significant Reduction Compared To I-Bet151 And Compound 3(Dw34)	Non-toxic	Active; Compound Showed No Significant Reduction Compared To I-Bet151 And Compound 3(Dw34)	Active	Active	90	Active	Active	Active; Compound Showed No Significant Reduction Compared To I-Bet151 And Compound 3(Dw34)	Active	Active	Active	Active	half-life [15]: 2.3 h; CL/F [19, 29]: 470 mL/min/kg; AUC at 24 h [22]: 0.64 µM·h
